The numbers were not newly measured in article PMC2931793 (Journal of neuroscience methods, 2008), which cites them from elsewhere.

The series relates to IDE. Particulars: ref Song et al., 2001.

As to Abz-GGFLRKGVQ-EDDnp, the “Vmax of IDE-mediated cleavage” value is given as ~ 0.2 μmol min^−1 mg^−1.
Regarding β-endorphin, the “Vmax of IDE-mediated cleavage” value was 2.6 µmol/min/mg.
